# Test results reported in patent US20210116454A1, “METHODS FOR TREATING A HEMATOLOGICAL CANCER AND THE USE OF COMPANION BIOMARKERS FOR 2-(2,6-DIOXOPIPERIDIN-3-YL)-4-((2-FLUORO-4-((3-MORPHOLINOAZETIDIN-1-YL)METHYL)BENZYL)AMINO)ISOINDOLINE-1,3-DIONE” (CELGENE CORPORATION, priority 2019, published 2021).
# Where two headings read alike, the source gives them in different places.
# Tests used:
# Experiment in all cases: 5-day viable cell number and apoptosis (7-AAD exclusion/Annexin V flow cytometry)
# Format in all cases: cell-based
# DB = DB cells, 5 days
# Excerpt: (§1) The DLBCL panel includes seven cell lines classified as activated B-cell (ABC) subtype, thirteen cell lines classified as the germinal center B-cell (GCB) subtype, and three cell lines classified as primary mediastinal B-cell lymphoma (PMBL). […] The translocation of MYC, BCL6, or BCL2 to an IG locus usually leads to high levels of mRNA and protein due to the active transcription driven by a constitutively active IG promoter. […] Expressions of CRBN protein and known substrates, Ikaros, Aiolos, and ZFP91 were also evaluated (FIG. 1, panels B and C).
# (§2) The panel of cell lines were treated with increasing doses of compounds for five days, at which time the number of viable cells was measured and the amount of apoptosis was determined by 7-AAD exclusion and Annexin V staining using flow cytometry.
# Farage = test system: Farage
# Excerpt: as §1, §2
# HT = test system: HT
# Excerpt: as §1, §2
# KARPAS-1106P = test system: KARPAS-1106P
# Excerpt: as §1, §2
# KARPAS-422 = test system: KARPAS-422
# Excerpt: as §1, §2
# OCI-LY-7 = test system: OCI-LY-7
# Excerpt: as §1, §2
# OCI-Ly10 = test system: OCI-Ly10
# Excerpt: as §1, §2
# Pfeiffer = test system: Pfeiffer
# Excerpt: as §1, §2
# RC-K8 = test system: RC-K8
# Excerpt: as §1, §2
# RIVA = test system: RIVA
# Excerpt: as §1, §2
# [1] = Homo sapiens, 120 h, HT cells, 5 days
# [2] = Homo sapiens, 120 h, KARPAS-1106P cells, 5 days
# [3] = Homo sapiens, 120 h, KARPAS-422 cells, 5 days
# [4] = Homo sapiens, OCI-Ly7, 120 h, OCI-LY-7 cells, 5 days
# [5] = Homo sapiens, 120 h, OCI-Ly10 cells, 5 days
# [6] = Homo sapiens, 120 h, Pfeiffer cells, 5 days
# [7] = Homo sapiens, RCK8, 120 h, RC-K8 cells, 5 days
smiles,measurement,setting,value
"O=C1CC[C@H](N2C(=O)c3cccc(NCc4ccc(CN5CC(N6CCOCC6)C5)cc4F)c3C2=O)C(=O)N1 [Compound 1, (S)-2-(2,6-dioxopiperidin-3-yl)-4-((2-fluoro-4-((3-morpholinoazetidin-1-yl)methyl)benzyl)amino)isoindoline-1,3-dione]",% Viable Cells AUC,DB,1173
same,% Viable Cells Emax,DB,107.1%
same,% Viable Cells Sensitivity,DB,Limited
same,Apoptosis AUC,DB,0
same,Apoptosis Sensitivity,DB,Limited
same,EC50,"Farage; 120 h, Farage cells, 5 days",73.6 nM
same,Emax,"Farage; 120 h, Farage cells, 5 days",54.2%
same,IC50,"Farage; 120 h, Farage cells, 5 days, read-out: % Viable Cells IC50",3.7 nM
same,IC50,"Farage; Farage cells (Table 3), read-out: IC50",59000 nM
same,% Viable Cells AUC,"Farage; Farage cells, 5 days",59.29
same,% Viable Cells Emax,"Farage; Farage cells, 5 days",1.676%
same,% Viable Cells Sensitivity,"Farage; Farage cells, 5 days",High (highly sensitive to Compound 1 with less than 6% viable cells remaining (Emax) after treatment)
same,Apoptosis AUC,"Farage; Farage cells, 5 days",503.6
same,Apoptosis Sensitivity,"Farage; Farage cells, 5 days",High
same,% Viable Cells AUC,"HT; HT cells, 5 days",434.8
same,% Viable Cells Emax,"HT; HT cells, 5 days",45.18%
same,% Viable Cells Sensitivity,"HT; HT cells, 5 days",Intermediate (intermediate sensitivity with 15% to 55% cell viability)
same,Apoptosis AUC,"HT; HT cells, 5 days",158.2
same,Apoptosis Sensitivity,"HT; HT cells, 5 days",Intermediate
same,EC50,HT; [1],7.82 nM
same,Emax,HT; [1],16.6%
same,IC50,"HT; Homo sapiens, 120 h, HT cells, 5 days, read-out: % Viable Cells IC50",470 nM
same,IC50,"HT; Homo sapiens, HT cells (Table 3), read-out: IC50",435000 nM
same,EC50,KARPAS-1106P; [2],56.1 nM
same,Emax,KARPAS-1106P; [2],59.8%
same,IC50,"KARPAS-1106P; Homo sapiens, 120 h, KARPAS-1106P cells, 5 days, read-out: % Viable Cells IC50",25 nM
same,IC50,"KARPAS-1106P; Homo sapiens, KARPAS-1106P cells (Table 3), read-out: IC50",111000 nM
same,% Viable Cells AUC,"KARPAS-1106P; KARPAS-1106P cells, 5 days",110.9
same,% Viable Cells Emax,"KARPAS-1106P; KARPAS-1106P cells, 5 days",1.183%
same,% Viable Cells Sensitivity,"KARPAS-1106P; KARPAS-1106P cells, 5 days",High (highly sensitive to Compound 1 with less than 6% viable cells remaining (Emax) after treatment)
same,Apoptosis AUC,"KARPAS-1106P; KARPAS-1106P cells, 5 days",597.7
same,Apoptosis Sensitivity,"KARPAS-1106P; KARPAS-1106P cells, 5 days",High
same,EC50,KARPAS-422; [3],32.5 nM
same,Emax,KARPAS-422; [3],70.5%
same,IC50,"KARPAS-422; Homo sapiens, 120 h, KARPAS-422 cells, 5 days, read-out: % Viable Cells IC50",5.4 nM
same,IC50,"KARPAS-422; Homo sapiens, KARPAS-422 cells (Table 3), read-out: IC50",45000 nM
same,% Viable Cells AUC,"KARPAS-422; KARPAS-422 cells, 5 days",45.21
same,% Viable Cells Emax,"KARPAS-422; KARPAS-422 cells, 5 days",1.584%
same,% Viable Cells Sensitivity,"KARPAS-422; KARPAS-422 cells, 5 days",High (highly sensitive to Compound 1 with less than 6% viable cells remaining (Emax) after treatment)
same,Apoptosis AUC,"KARPAS-422; KARPAS-422 cells, 5 days",682.2
same,Apoptosis Sensitivity,"KARPAS-422; KARPAS-422 cells, 5 days",High
same,EC50,OCI-LY-7; [4],12.8 nM
same,Emax,OCI-LY-7; [4],68.8%
same,IC50,"OCI-LY-7; Homo sapiens, OCI-Ly7, 120 h, OCI-LY-7 cells, 5 days, read-out: % Viable Cells IC50",3.6 nM
same,IC50,"OCI-LY-7; Homo sapiens, OCI-Ly7, OCI-LY-7 cells (Table 3), read-out: IC50",62000 nM
same,% Viable Cells AUC,"OCI-LY-7; OCI-LY-7 cells, 5 days",61.98
same,% Viable Cells Emax,"OCI-LY-7; OCI-LY-7 cells, 5 days",1.657%
same,% Viable Cells Sensitivity,"OCI-LY-7; OCI-LY-7 cells, 5 days",High (highly sensitive to Compound 1 with less than 6% viable cells remaining (Emax) after treatment)
same,Apoptosis AUC,"OCI-LY-7; OCI-LY-7 cells, 5 days",673.2
same,Apoptosis Sensitivity,"OCI-LY-7; OCI-LY-7 cells, 5 days",High
same,EC50,OCI-Ly10; [5],2090 nM
same,Emax,OCI-Ly10; [5],29.4%
same,IC50,"OCI-Ly10; Homo sapiens, 120 h, OCI-Ly10 cells, 5 days, read-out: % Viable Cells IC50",50 nM
same,IC50,"OCI-Ly10; Homo sapiens, OCI-Ly10 cells (Table 3), read-out: IC50",267000 nM
same,% Viable Cells AUC,"OCI-Ly10; OCI-Ly10 cells, 5 days",267.3
same,% Viable Cells Emax,"OCI-Ly10; OCI-Ly10 cells, 5 days",19.19%
same,% Viable Cells Sensitivity,"OCI-Ly10; OCI-Ly10 cells, 5 days",Intermediate (intermediate sensitivity with 15% to 55% cell viability)
same,Apoptosis AUC,"OCI-Ly10; OCI-Ly10 cells, 5 days",187.7
same,Apoptosis Sensitivity,"OCI-Ly10; OCI-Ly10 cells, 5 days",Intermediate
same,EC50,Pfeiffer; [6],300 nM
same,Emax,Pfeiffer; [6],8.01%
same,IC50,"Pfeiffer; Homo sapiens, Pfeiffer cells (Table 3)",855000 nM
same,% Viable Cells AUC,"Pfeiffer; Pfeiffer cells, 5 days",912.3
same,% Viable Cells Emax,"Pfeiffer; Pfeiffer cells, 5 days",86.19%
same,% Viable Cells Sensitivity,"Pfeiffer; Pfeiffer cells, 5 days",Limited
same,Apoptosis AUC,"Pfeiffer; Pfeiffer cells, 5 days",133.5
same,Apoptosis Sensitivity,"Pfeiffer; Pfeiffer cells, 5 days",Limited
same,EC50,RC-K8; [7],230 nM
same,Emax,RC-K8; [7],9.53%
same,IC50,"RC-K8; Homo sapiens, RCK8, 120 h, RC-K8 cells, 5 days, read-out: % Viable Cells IC50",100 nM
same,IC50,"RC-K8; Homo sapiens, RCK8, RC-K8 cells (Table 3), read-out: IC50",409000 nM
same,% Viable Cells AUC,"RC-K8; RC-K8 cells, 5 days",409.1
same,% Viable Cells Emax,"RC-K8; RC-K8 cells, 5 days",34.92%
same,% Viable Cells Sensitivity,"RC-K8; RC-K8 cells, 5 days",Intermediate (intermediate sensitivity with 15% to 55% cell viability)
same,Apoptosis AUC,"RC-K8; RC-K8 cells, 5 days",81.59
same,Apoptosis Sensitivity,"RC-K8; RC-K8 cells, 5 days",Intermediate
same,EC50,"RIVA; 120 h, RIVA cells, 5 days",19 nM
same,Emax,"RIVA; 120 h, RIVA cells, 5 days",22.7%
same,IC50,"RIVA; 120 h, RIVA cells, 5 days, read-out: % Viable Cells IC50",50 nM
same,IC50,"RIVA; RIVA cells (Table 3), read-out: IC50",396000 nM
same,% Viable Cells AUC,"RIVA; RIVA cells, 5 days",395.8
